Test results as given in ChEMBL document CHEMBL3046052, “New thiazolidinedione-5-acetic acid amide derivatives: synthesis, characterization and investigation of antimicrobial and cytotoxic properties” (Med Chem Res, 2012).
Converted amounts (≈) assume the structure as drawn.

Legend:
[1] = test system: Aspergillus flavus; assay: Antifungal activity against Aspergillus flavus NCIM 524 after 48 hr by NCCLS two-foldserial dilution method; assay type: functional; details: NCIM 524, 48 h
[2] = test system: Pseudomonas aeruginosa; assay: Antibacterial activity against Pseudomonas aeruginosa ATCC 25619 after 24 hr by NCCLS two-fold serial dilution method; assay type: functional; details: ATCC 25619, 24 h
[3] = test system: HT-29; assay: Cytotoxicity against Homo sapiens (human) HT-29 cells after 24 hr by MTT assay; assay type: functional, cell-based; details: HT-29, 24 h
[4] = test system: MCF7; assay: Cytotoxicity against Homo sapiens (human) MCF7 cells after 24 hr by MTT assay; assay type: functional, cell-based; details: MCF7, 24 h
[5] = test system: Enterococcus faecalis; assay: Antibacterial activity against Enterococcus faecalis ATCC 35550 after 24 hr by NCCLS two-fold serial dilution method; assay type: functional; details: ATCC 35550, 24 h
[6] = test system: Candida albicans; assay: Antifungal activity against Candida albicans ATCC 2091 after 48 hr by NCCLS two-fold serial dilution method; assay type: functional; details: ATCC 2091, 48 h
[7] = test system: Cryptococcus neoformans; assay: Antifungal activity against Cryptococcus neoformans clinical isolate after 48 hr by NCCLS two-fold serial dilution method; assay type: functional
[8] = test system: HeLa; assay: Cytotoxicity against Homo sapiens (human) HeLa cells after 24 hr by MTT assay; assay type: functional, cell-based
[9] = test system: A549; assay: Cytotoxicity against Homo sapiens (human) A549 cells after 24 hr by MTT assay; assay type: functional, cell-based; details: A549, 24 h
[10] = test system: Aspergillus niger; assay: Antifungal activity against Aspergillus niger ATCC 6275 after 48 hr by NCCLS two-fold serial dilution method; assay type: functional; details: ATCC 6275, 48 h
[11] = test system: Escherichia coli; assay: Antibacterial activity against Escherichia coli ATCC 35218 after 24 hr by NCCLS two-fold serial dilution method; assay type: functional; details: ATCC 35218, 24 h
[12] = test system: Staphylococcus aureus; assay: Antibacterial activity against Staphylococcus aureus ATCC 25923 after 24 hr by NCCLS two fold serial dilution method; assay type: functional; details: ATCC 25923, 24 h

Compound	MIC [1]	MIC [2]	IC50 [3]	IC50 [4]	MIC [5]	MIC [6]	MIC [7]	IC50 [8]	IC50 [9]	MIC [10]	MIC [11]	MIC [12]
COc1cc(-c2nnc(NC(=O)CC3SC(=O)NC3=O)s2)cc(OC)c1OC (centres undefined)	16 µg/mL (≈ 37.7 µM)	16 µg/mL (≈ 37.7 µM)	35 µM	36 µM	16 µg/mL (≈ 37.7 µM)	16 µg/mL (≈ 37.7 µM)	32 µg/mL (≈ 75.4 µM)	33 µM	30 µM	16 µg/mL (≈ 37.7 µM)	16 µg/mL (≈ 37.7 µM)	16 µg/mL (≈ 37.7 µM)
CC(=O)N1CCN(c2ccc(OCC3COC(Cn4ccnc4)(c4ccc(Cl)cc4Cl)O3)cc2)CC1 (centres undefined) [KETOCONAZOLE]	1 µg/mL (≈ 1.88 µM)					2 µg/mL (≈ 3.76 µM)	2 µg/mL (≈ 3.76 µM)			2 µg/mL (≈ 3.76 µM)		
Cc1ccc(-c2nnc(NC(=O)CC3SC(=O)NC3=O)s2)cc1 (centres undefined)	32 µg/mL (≈ 91.8 µM)	16 µg/mL (≈ 45.9 µM)	58 µM	52 µM	4 µg/mL (≈ 11.5 µM)	16 µg/mL (≈ 45.9 µM)	32 µg/mL (≈ 91.8 µM)	50 µM	46 µM	32 µg/mL (≈ 91.8 µM)	16 µg/mL (≈ 45.9 µM)	8 µg/mL (≈ 23 µM)
O=C(CC1SC(=O)NC1=O)Nc1nnc(-c2ccc(Cl)cc2)s1 (centres undefined)	16 µg/mL (≈ 43.4 µM)	32 µg/mL (≈ 86.8 µM)	64 µM	68 µM	32 µg/mL (≈ 86.8 µM)	16 µg/mL (≈ 43.4 µM)	16 µg/mL (≈ 43.4 µM)	62 µM	60 µM	16 µg/mL (≈ 43.4 µM)	32 µg/mL (≈ 86.8 µM)	4 µg/mL (≈ 10.8 µM)
CC1(C)S[C@@H]2[C@H](NC(=O)[C@H](N)c3ccccc3)C(=O)N2[C@H]1C(=O)O [AMPICILLIN]					2 µg/mL (≈ 5.72 µM)							2 µg/mL (≈ 5.72 µM)
COc1cccc(-c2nnc(NC(=O)CC3SC(=O)NC3=O)s2)c1 (centres undefined)	16 µg/mL (≈ 43.9 µM)	32 µg/mL (≈ 87.8 µM)	56 µM	58 µM	8 µg/mL (≈ 22 µM)	16 µg/mL (≈ 43.9 µM)	16 µg/mL (≈ 43.9 µM)	54 µM	60 µM	32 µg/mL (≈ 87.8 µM)	16 µg/mL (≈ 43.9 µM)	4 µg/mL (≈ 11 µM)
O=C(CC1SC(=O)NC1=O)Nc1nnc(C(F)(F)F)s1 (centres undefined)	32 µg/mL (≈ 98.1 µM)	32 µg/mL (≈ 98.1 µM)	50 µM	62 µM	32 µg/mL (≈ 98.1 µM)	16 µg/mL (≈ 49 µM)	16 µg/mL (≈ 49 µM)	42 µM	60 µM	16 µg/mL (≈ 49 µM)	32 µg/mL (≈ 98.1 µM)	32 µg/mL (≈ 98.1 µM)
O=C(CC1SC(=O)NC1=O)Nc1nnc(-c2cccc([N+](=O)[O-])c2)s1 (centres undefined)	64 µg/mL (≈ 169 µM)	32 µg/mL (≈ 84.3 µM)	72 µM	67 µM	64 µg/mL (≈ 169 µM)	64 µg/mL (≈ 169 µM)	64 µg/mL (≈ 169 µM)	68 µM	78 µM	64 µg/mL (≈ 169 µM)	64 µg/mL (≈ 169 µM)	32 µg/mL (≈ 84.3 µM)
O=C(CC1SC(=O)NC1=O)Nc1nnc(-c2ccc([N+](=O)[O-])cc2)s1 (centres undefined)	32 µg/mL (≈ 84.3 µM)	64 µg/mL (≈ 169 µM)	60 µM	72 µM	32 µg/mL (≈ 84.3 µM)	64 µg/mL (≈ 169 µM)	64 µg/mL (≈ 169 µM)	50 µM	68 µM	64 µg/mL (≈ 169 µM)	64 µg/mL (≈ 169 µM)	32 µg/mL (≈ 84.3 µM)
O=C(CC1SC(=O)NC1=O)Nc1nnc(-c2ccccc2[N+](=O)[O-])s1 (centres undefined)	64 µg/mL (≈ 169 µM)	64 µg/mL (≈ 169 µM)	68 µM	78 µM	64 µg/mL (≈ 169 µM)	64 µg/mL (≈ 169 µM)	64 µg/mL (≈ 169 µM)	50 µM	72 µM	16 µg/mL (≈ 42.2 µM)	64 µg/mL (≈ 169 µM)	32 µg/mL (≈ 84.3 µM)
COc1ccc(-c2nnc(NC(=O)CC3SC(=O)NC3=O)s2)cc1OC (centres undefined)	16 µg/mL (≈ 40.6 µM)	16 µg/mL (≈ 40.6 µM)	42 µM	38 µM	32 µg/mL (≈ 81.1 µM)	16 µg/mL (≈ 40.6 µM)	16 µg/mL (≈ 40.6 µM)	40 µM	35 µM	32 µg/mL (≈ 81.1 µM)	16 µg/mL (≈ 40.6 µM)	16 µg/mL (≈ 40.6 µM)
COc1ccc(-c2nnc(NC(=O)CC3SC(=O)NC3=O)s2)cc1 (centres undefined)	32 µg/mL (≈ 87.8 µM)	16 µg/mL (≈ 43.9 µM)	44 µM	42 µM	4 µg/mL (≈ 11 µM)	16 µg/mL (≈ 43.9 µM)	16 µg/mL (≈ 43.9 µM)	42 µM	45 µM	16 µg/mL (≈ 43.9 µM)	32 µg/mL (≈ 87.8 µM)	16 µg/mL (≈ 43.9 µM)
O=C(CC1SC(=O)NC1=O)Nc1nnc(-c2ccc(Br)cc2)s1 (centres undefined)	16 µg/mL (≈ 38.7 µM)	32 µg/mL (≈ 77.4 µM)	60 µM	72 µM	32 µg/mL (≈ 77.4 µM)	16 µg/mL (≈ 38.7 µM)	16 µg/mL (≈ 38.7 µM)	52 µM	68 µM	16 µg/mL (≈ 38.7 µM)	32 µg/mL (≈ 77.4 µM)	8 µg/mL (≈ 19.4 µM)
O=C(CC1SC(=O)NC1=O)Nc1nnc(-c2ccccc2)s1 (centres undefined)	64 µg/mL (≈ 191 µM)	64 µg/mL (≈ 191 µM)	78 µM	80 µM	64 µg/mL (≈ 191 µM)	64 µg/mL (≈ 191 µM)	64 µg/mL (≈ 191 µM)	62 µM	80 µM	64 µg/mL (≈ 191 µM)	64 µg/mL (≈ 191 µM)	32 µg/mL (≈ 95.7 µM)
O=C(CC1SC(=O)NC1=O)Nc1nnc(-c2ccc(F)cc2)s1 (centres undefined)	8 µg/mL (≈ 22.7 µM)	8 µg/mL (≈ 22.7 µM)	42 µM	60 µM	4 µg/mL (≈ 11.4 µM)	8 µg/mL (≈ 22.7 µM)	8 µg/mL (≈ 22.7 µM)	50 µM	50 µM	4 µg/mL (≈ 11.4 µM)	8 µg/mL (≈ 22.7 µM)	4 µg/mL (≈ 11.4 µM)
O=C(CC1SC(=O)NC1=O)Nc1nnc(-c2ccccc2Cl)s1 (centres undefined)	32 µg/mL (≈ 86.8 µM)	32 µg/mL (≈ 86.8 µM)	66 µM	84 µM	16 µg/mL (≈ 43.4 µM)	16 µg/mL (≈ 43.4 µM)	16 µg/mL (≈ 43.4 µM)	60 µM	62 µM	16 µg/mL (≈ 43.4 µM)	32 µg/mL (≈ 86.8 µM)	16 µg/mL (≈ 43.4 µM)
